Data: patent US5128242A, “Hypothalamic polypeptides with adenylate cyclase stimulating activity” (The Administrators of the Tulane Educational Fund, priority 1989, dated 1992)
Entries after “also recorded” stand apart in the source; their conditions may differ. Ends that are not written are not given here.

Experiments:
[1] = system: rat pituitary cell cultures; test: Intracellular cAMP accumulation in cultured pituitary cells; assay type: cell-based; settings: temporal changes, concentration not given
Excerpt: FIG. 6a. Intracellular cAMP accumulation in cultured pituitary cells.
We also determined temporal changes in intracellular cAMP levels in rat pituitary cell cultures.

[2] = system: arterial blood pressure; test: Determination of depressor activity (arterial blood pressure) in urethane-anesthetized rats; assay type: in vivo, rat; settings: for vasodepressor activity: urethane-anaesthetized rats, dose range 0.33 nmole to 1.0 nmole
Description: Arterial blood pressure was measured in urethane (150 mg/100 g ip) anesthetized adult male rats. Polyethylene tubing (PE50) which was connected with a pressure transducer P-1000 B (Narco Bio-Systems) was inserted into the femoral artery. Blood pressure was recorded using Narcotrace 40. Another polyethylene tube (PE50) was inserted into a femoral vein for injection of test materials dissolved in 0.5 ml 0.9% saline.

[3] = system: astrocytes; test: Intracellular cAMP accumulation in cultured astrocytes; assay type: cell-based, rat; settings: for intracellular cAMP response in astrocytes: 10^-9 M added to culture medium
Description: FIG. 6b. Intracellular cAMP accumulation in cultured astrocytes.
(§1) For studies on neurons, rat neuronal cell cultures were prepared by the method described by Raizada et al. (Raizada et al. Am. J. Physiol. 247:C364, 1984). Astrocyte cultures were prepared using the single-step transfer method as described by Clarke et al. (Clark et al., J. Biol. Chem. 259:11672, 1984). […] Intracellular cAMP levels remained elevated for at least 60 minutes in astrocytes, but began to decrease after 10 min in neurons.

[4] = system: neurons; test: Intracellular cAMP accumulation in cultured neurons; assay type: cell-based, rat; settings: for intracellular cAMP response in neurons: 10^-9 M added to culture medium
Description: FIG. 6c. Intracellular cAMP accumulation in cultured neurons.
as §1

[5] = system: superfused pituitary cells; test: Superfusion method using rat pituitary cell column: release of pituitary hormones; assay type: cell-based
Description: FIGS. 5A-5D. The effect of synthetic PACAP38 on the release of pituitary hormones from superfused pituitary cells. A pituitary cell superfusion method to determine the hypophysiotropic activity of samples was conducted as reported by Vigh and Schally. The peptide was applied as a 3 min pulse. The numbers at top indicate; 1,7: 100 mM KCl, 2: 10^-10 M PACAP38, 3: 10^-9 M PACAP38, 4: 10^-8 M PACAP38, 5: 10^-7 M PACAP38, 6: 10^-6 M PACAP38. 0.9 ml fractions were collected every 3 min.
A pituitary cell superfusion method to determine the hypophysiotropic activity of samples was conducted as reported by Vigh and Schally (1984). Pituitaries obtained from 3 adult female rats were cut into small pieces and incubated in a Dubnoff incubator for 45 min at 37° C. in 10 ml of oxygenated Medium 199 (Gibco/Life Technologies) containing 0.5% collagenase (Sigma Type I), 0.25% BSA and […] gentamicin sulphate (Sigma). After this incubation, there were no apparent changes in the pituitary tissue, but the fragments could be easily dispersed into single cells by repeated suction and expulsion from a Pasteur pipet. After 30 to 60 pipet operations, the tissue fell apart. The cell suspension was centrifuged at room temperature for 10 min at 100×g. The cell pellet was then resuspended in 1.0 ml medium. A small aliquot was diluted to count the cells, and the remainder of the suspension was divided into 2 equal volumes. Each volume (containing about 5×10^6 cells and usually between 3.5 and 7.0×10^6) was mixed with 0.5 ml Sephadex G-15 which had been equilibrated with previously oxygenated medium. The mixture of pituitary cells and Sephadex was transferred into 2 chambers of the superfusion apparatus and perfused with the medium. The medium was always freshly prepared in a way similar to that for enzymatic dispersion, omitting the collagenase, then passed through a Millipore filter, and continuously gassed with a mixture of O2 (95%) and CO2 (5%) during the experiment. The flow rate of the medium through the superfusion system was controlled by a multichannel pump (Gilson Minipulse Type HP-8) which was placed behind the superfusion chamber; the tuning of the lower plunger was connected to the pump, and from there to a two-channel fraction collector. Thus, the system was operated with negative pressure in order to get fewer fluctuations in the flow rate. Samples were applied as a 3 min pulse followed by the medium superfusion. Superfusate was collected as 3 min fractions, 0.9 ml per fraction.

[6] = system: adenylate cyclase; settings: rat pituitary cell cultures
Description: Primary monolayer rat anterior pituitary cell culture was prepared as described previously (Culler et al., 1984). Anterior pituitaries from CD strain female rats of approximately 200 g bw (Charles River Breeding Labs, Wilmington, Mass.) at a random stage of estrous cycle were enzymatically dispersed with collagenase Type II and DNAse II. Dispersed cells were collected by centrifugation and washed three times with HEPES buffer and finally suspended in Dulbecco,s modified Eagle's medium (DMEM) containing 10% horse serum, 2.5% fetal calf serum and 1% antibiotic antimycotic solution (Gibco/Life Technologies, Grand Isle, NY) The cells are plated in 24-multiwell tissue culture plates (Falcon, Oxnard, Calif.) at a density of 1.5×10^5 cells/ml/well, and then incubated at 37° C. in a water-saturated atmosphere of 95% air 5% CO2 for 4 days. Prior to acute stimulation, cultured cells were incubated for 3 hr in serum-free DMEM with two changes of the medium. The cells were then incubated for 3 hr in 0.5 ml of HEPES-buffered DMEM containing test materials. Ascorbic acid (2.5×10^-4 M) and 0.25% BSA were routinely added to the medium during assay incubation in order to prevent possible oxidation and adsorption of test samples. […]
Cyclic AMP in the culture media was determined by RIA as described by Harper and Brooker (J. Cyclic Nucleo. Res. 1:207, 1975). […]

[7] = system: neurons; settings: De Brenneman et al. 1987, 1988; cited from earlier work
[8] = system: rat pituitary fragments; settings: in vitro; Arimura et al. 1984; cited from earlier work
[9] = superfused rat pituitary cells, hormone release

Q: With “CRH: known hypothalamic releasing hormone (corticotropic releasing hormone) used for comparison (SEEPPISLDLTFHLLREVLEMARAEQLAQQAHSNRKLMEII; ends and bridges not checked; UniProt P06850 154-194, looked up)” as the compound, how does the “intracellular cAMP accumulation (extent and pattern)” value (“intracellular cAMP accumulation” for short) [1] read?
A: comparable extent and pattern of cAMP accumulation

Q: For `CC[C@H](C)[C@H](NC(=O)CNC(=O)[C@H](CC(=O)O)NC(=O)[C@H](CO)NC(=O)[C@@H](N)Cc1c[nH]cn1)C(=O)N[C@@H](Cc1ccccc1)C(=O)N[C@H](C(=O)N[C@@H](CC(=O)O)C(=O)N[C@@H](CO)C(=O)N[C@@H](Cc1ccc(O)cc1)C(=O)N[C@@H](CO)C(=O)N[C@@H](CCCNC(=N)N)C(=O)N[C@@H](Cc1ccc(O)cc1)C(=O)N[C@@H](CCCNC(=N)N)C(=O)N[C@@H](CCCCN)C(=O)N[C@@H](CCC(N)=O)C(=O)N[C@@H](CCSC)C(=O)N[C@@H](C)C(=O)N[C@H](C(=O)N[C@@H](CCCCN)C(=O)N[C@@H](CCCCN)C(=O)N[C@@H](Cc1ccc(O)cc1)C(=O)N[C@@H](CC(C)C)C(=O)N[C@@H](C)C(=O)N[C@@H](C)C(=O)N[C@H](C(=O)N[C@@H](CC(C)C)C(=O)NCC(=O)N[C@@H](CCCCN)C(=O)N[C@@H](CCCNC(=N)N)C(=O)N[C@@H](Cc1ccc(O)cc1)C(=O)N[C@@H](CCCCN)C(=O)N[C@@H](CCC(N)=O)C(=O)N[C@@H](CCCNC(=N)N)C(=O)N[C@H](C(=O)N[C@@H](CCCCN)C(=O)N[C@@H](CC(N)=O)C(=O)N[C@@H](CCCCN)C(N)=O)C(C)C)C(C)C)C(C)C)[C@@H](C)O` [PACAP38], which “intracellular cAMP accumulation” value [1] is on record?
A: comparable extent and pattern of cAMP accumulation

Q: And the depressor activity ([2]; anesthetized rats, injection into femoral vein)?
A: significant, but somewhat weaker

Q: And the vasodepressor activity [2]?
A: comparable vasodepressor activity

Q: What about the “time intracellular cAMP levels remained elevated, astrocytes” value ([3]; 10^-9 M) of the same compound?
A: at least 60 minutes

Q: And the “time of first cAMP increase after addition, astrocytes” value ([3]; 10^-9 M)?
A: as early as one minute

Q: And the “intracellular cAMP response in astrocytes” value [3]?
A: extraordinarily large

Q: What about the “time after which intracellular cAMP began to decrease, neurons” value ([4]; 10^-9 M) of the same compound?
A: 10 min

Q: And the “time of first cAMP increase after addition, neurons” value ([4]; 10^-9 M)?
A: as early as one minute

Q: And the “intracellular cAMP response in neurons” value [4]?
A: increased intracellular cAMP

Q: And the FSH release ([5]; 3 min pulse, 10^-10 to 10^-6 M)?
A: not altered; also recorded: not apparent

Q: What about the LH release ([5]; 3 min pulse, 10^-10 to 10^-6 M) of the same compound?
A: LH response was linear

Q: What about the TSH release ([5]; 3 min pulse, 10^-10 to 10^-6 M) of the same compound?
A: not altered; also recorded: not apparent

Q: And the “dose of maximum effect (bell-shaped dose response curve)” value [5, 9]?
A: 10^-8 M

Q: What about the minimum effective dose [5, 9] of the same compound?
A: 10^-10 M

Q: What about the “adenylate cyclase stimulating activity relative to VIP” value ([6]; fold of VIP) of the same compound?
A: at least 100 times

Q: With “vasoactive intestinal peptide [VIP, reference compound]” as the compound, how does the “intracellular cAMP accumulation” value [1] read?
A: little effect

Q: And the vasodepressor activity [2]?
A: comparable vasodepressor activity

Q: And the “intracellular cAMP response in astrocytes” value [3]?
A: did not induce an appreciable stimulation of cAMP

Q: What about the “intracellular cAMP response in neurons” value [4] of the same compound?
A: did not induce an appreciable stimulation of cAMP

Q: What about the “protection of neurons from gp120-induced cell death” value [7] of the same compound?
A: capable of protecting neurons from cell death

Q: Which “intracellular cAMP accumulation” value [1] does the source give for “growth hormone releasing hormone (YADAIFTNSYRKVLGQLSARKLLQDIMSRQQGESNQERGARARL; ends and bridges not checked; UniProt P01286 32-75, looked up) [GRH]” here?
A: greatest accumulation of intracellular cAMP

Q: Which “GH release from rat pituitary fragments” value [8] does the source give for “HP: ovine hypothalamic peptide, partial N-terminal sequence His-Ser-Asp-Gly-Ile-Phe-Thr-Asp-Ser-Tyr-Lys-Arg-Tyr-Asn-Lys-Glu-Met-Ala-Lys- (HSDGIFTDSYKRYNKEMAK; printed: His-Ser-Asp-Gly-Ile-Phe-Thr-Asp-Ser-Tyr-Lys-Arg-Tyr-Asn-Lys-Glu-Met-Ala-Lys-)” here?
A: stimulated GH release

Q: For `CC[C@H](C)[C@H](NC(=O)CNC(=O)[C@H](CC(=O)O)NC(=O)[C@H](CO)NC(=O)[C@@H](N)Cc1c[nH]cn1)C(=O)N[C@@H](Cc1ccccc1)C(=O)N[C@H](C(=O)N[C@@H](CC(=O)O)C(=O)N[C@@H](CO)C(=O)N[C@@H](Cc1ccc(O)cc1)C(=O)N[C@@H](CO)C(=O)N[C@@H](CCCNC(=N)N)C(=O)N[C@@H](Cc1ccc(O)cc1)C(=O)N[C@@H](CCCNC(=N)N)C(=O)N[C@@H](CCCCN)C(=O)N[C@@H](CCC(N)=O)C(=O)N[C@@H](CCSC)C(=O)N[C@@H](C)C(=O)N[C@H](C(=O)N[C@@H](CCCCN)C(=O)N[C@@H](CCCCN)C(=O)N[C@@H](Cc1ccc(O)cc1)C(=O)N[C@@H](CC(C)C)C(=O)N[C@@H](C)C(=O)N[C@@H](C)C(=O)N[C@H](C(=O)N[C@@H](CC(C)C)C(N)=O)C(C)C)C(C)C)[C@@H](C)O` [PACAP27NH2], which “intracellular cAMP accumulation” value [1] is on record?
A: comparable extent and pattern of cAMP accumulation

Q: And the “ACSA activity compared with native PACAP38” value ([6]; cAMP in medium after 3 hr incubation)?
A: similar, if not greater
